Test results: patent US10292962B2, “Pharmaceutical combination comprising metformin and dihydroquercetin and its use for the treatment of cancer” (RESEARCH INSTITUTE FOR NUTRITION AND AGING CO., LTD., priority 2013, dated 2019)

Tests used:
WI-38 cells [1] = assay: Metformin-induced lactate production in human lung fibroblast cell line WI-38 (Example 3); type: cell-based; conditions: dihydroquercetin 1 mmol/L added 1 hr before metformin 20 mmol/L, 6 hr, vs metformin single (FIG. 3)
Experimental: After the culture, the conditioned medium was sampled, and the concentration of lactate contained in the medium was measured and evaluated.
Medium containing the given concentration of dihydroquercetin was added to each well and the cells were cultured for 1 hr. […] Using the Lactate Assay Kit II (BioVision) catalog no. K627-100, lactate concentration was measured.

[2] = tested on: phospho-4E-BP1 (Thr37/Thr46) protein; assay: Relative phospho-4E-BP1 protein amount (ELISA) in human ovarian cancer cell line Caov-3 (Example 8); type: cell-based; conditions: metformin 20 mmol/L, dihydroquercetin 0.2 mmol/L, single or combined, 6 hr, control 21.6
Experimental: On the following day after cell seeding, test substances were added and the cells were cultured for 6 hr before harvesting them. The amounts of relative phospho-4E-BP1 protein contained in the prepared whole cell lysates were measured and evaluated. Each group (N=3) was treated as follows: • (1) Control (vehicle control) group: 1% ethanol containing medium • (2) Metformin single-treated group: metformin 20 mmol/L • (3) Dihydroquercetin single-treated group: dihydroquercetin 0.2 mmol/L • (4) Combined-treated group: metformin 20 mmol/L+dihydroquercetin 0.2 mmol/L
The passage-cultured Caov-3 cells were dissociated with trypsin, and suspended in fresh medium. The cell density of the cell suspension was determined using a hematocytometer and adjusted to 2.5×10^5 cells/mL. The cells were seeded on 12-well multiwell culture plate at 1 mL per well, and cultured overnight under the conditions of 37° C., 5% CO2. […] Upon centrifugation, the supernatants were sampled, and the amounts of relative phospho-4E-BP1 (Thr37/Thr46) protein in the samples were quantified using ELISA kits in the same manner as in Example 1. The total protein concentrations in the whole cell lysates were measured using BCA protein assay, and the relative phospho-4E-BP1 protein amount of each well was normalized with the total protein amount. […]

[3] = tested on: phospho-4E-BP1 (Thr37/Thr46) protein; assay: Relative phospho-4E-BP1 protein amount (ELISA) in human bile duct cancer cell line HuH-28 (Example 7); type: cell-based; conditions: metformin 20 mmol/L, dihydroquercetin 0.2 mmol/L, single or combined, 6 hr, control 58.8
Experimental: On the following day after cell seeding, test substances were added and the cells were cultured for 6 hr before harvesting them. The amounts of relative phospho-4E-BP1 protein contained in the prepared whole cell lysates were measured and evaluated. Each group (N=3) was treated as follows: • (1) Control (vehicle control) group: 1% ethanol containing medium • (2) Metformin single-treated group: metformin 20 mmol/L • (3) dihydroquercetin single-treated group: dihydroquercetin 0.2 mmol/L • (4) combined-treated group: metformin 20 mmol/L+dihydroquercetin 0.2 mmol/L
The passage-cultured HuH-28 cells were dissociated with trypsin, and suspended in the medium. The cell density of the cell suspension was determined using a hematocytometer and adjusted to 2.5×10^5 cells/mL. The cells were seeded on 12-well multiwell culture plate at 1 mL per well, and cultured overnight under the conditions of 37° C., 5% CO2. […] Upon centrifugation, the supernatants were sampled, and the amounts of relative phospho-4E-BP1 (Thr37/Thr46) protein in the samples were quantified using ELISA kits in the same manner as in Example 1. The total protein concentrations in the whole cell lysates were measured using BCA protein assay, and the relative phospho-4E-BP1 protein amount of each well was normalized with the total protein amount. […]

WI-38 cells [4] = assay: Lactate production in human lung fibroblast cell line WI-38, racemate and optically-active dihydroquercetin (Example 10); conditions: for Metformin-induced lactate production: dihydroquercetin 1 mmol/L added 1 hr before metformin 20 mmol/L, 6 hr (FIG. 4, FIG. 5); for Lactate production: dihydroquercetin 1 mmol/L single, compared with the control group (FIG. 4, FIG. 5)
Experimental: On the following day after cell seeding, dihydroquercetin was added and the cells were cultured for 1 hr. Then, metformin was added and the cells were cultured for 6 hr. The conditioned medium was sampled, and the concentration of the lactate contained in the medium was measured and evaluated. Each group (N=3) was treated as follows: • (1) Control (vehicle control) group: 1% ethanol containing medium • (2) Dihydroquercetin single-treated group: dihydroquercetin 1 mmol/L • (3) Metformin single-treated group: metformin 20 mmol/L • (4) Combined-treated group: metformin 20 mmol/L+dihydroquercetin 1 mmol/L
The passage-cultured WI-38 cells were dissociated with trypsin, and suspended in fresh medium. The cell density of the cell suspension was determined using a hematocytometer and adjusted to 2.5×10^5 cells/mL. The cells were seeded on 24-well multiwell culture plate (IWAKI) at 0.5 mL per well, and cultured overnight under the conditions of 37° C., 5% CO2. Thereto was added a medium containing a given concentration of dihydroquercetin and the cells were cultured for 1 hr, a medium containing a given concentration of metformin was added and the cells were further cultured for 6 hr. After culture, the culture supernatant from each well was sampled and passed through a filter for molecular weight cut-off 10 kDa to obtain the filtrate. Using the Lactate Assay Kit II (BioVision) catalog no. K627-100, lactate concentration was measured. The cells after sampling of the culture supernatant were washed twice with D-PBS, and cell lysis buffer was added to prepare whole cell lysates. The concentrations of the protein in the whole cell lysates were measured using BCA protein assay, and the lactate concentration of each well was normalized with the protein concentration.
To evaluate the influence of dihydroquercetin on the metformin-induced produced lactate content, the Student's t-test was performed for the concentration of lactate in the medium between the control group and the dihydroquercetin single agent treated group, and between the control group and the metformin single agent treated group. In addition, to evaluate an influence of the combination of dihydroquercetin and metformin for normalized produced lactate content, a two-way ANOVA (two-tailed) (factors: group and concentration) was performed between the dihydroquercetin single agent treated group (groups 1 and 2) and the metformin treated group (groups 3 and 4). […] The analysis was performed using SAS software Release 9.3 (SAS Institute Japan). The differences were considered statistically significant when the p value was less than 0.05.

[5] = tested on: phospho-4E-BP1 (Thr37/Thr46) protein; assay: Relative phospho-4E-BP1 protein amount (ELISA) in human prostate cancer cell line 22Rv1 (Example 6); type: cell-based; conditions: metformin 10 mmol/L, dihydroquercetin 0.2 mmol/L, single or combined, 6 hr, control 51.0
Experimental: On the following day after cell seeding, test substances were added and the cells were cultured for 6 hr before harvesting them. The amounts of relative phospho-4E-BP1 protein contained in the prepared whole cell lysates were measured and evaluated. Each group (N=3) was treated as follows: • (1) Control (vehicle control) group: 1% ethanol containing medium • (2) Metformin single-treated group: metformin 10 mmol/L • (3) Dihydroquercetin single-treated group: dihydroquercetin 0.2 mmol/L • (4) Combined-treated group: metformin 10 mmol/L+dihydroquercetin 0.2 mmol/L
The passage-cultured 22Rv1 cells were dissociated with trypsin, and suspended in fresh medium. The cell density of the cell suspension was determined using a hematocytometer and adjusted to 2.5×10^5 cells/mL. The cells were seeded on 12-well multiwell culture plate at 1 mL per well, and cultured overnight under the conditions of 37° C., 5% CO2. […] Upon centrifugation, the supernatants were sampled, and the amounts of relative phospho-4E-BP1 (Thr37/Thr46) protein in the samples were quantified using ELISA kits in the same manner as in Example 1. The concentrations of total protein in the whole cell lysates were measured using BCA protein assay, and the relative phospho-4E-BP1 protein amount of each well was normalized with the total protein amount. […]

[6] = tested on: phospho-4E-BP1 (Thr37/Thr46) protein; assay: Relative phospho-4E-BP1 protein amount (ELISA) in human breast cancer cell line MDA-MB-231 (Example 5); type: cell-based; conditions: metformin 5 mmol/L, dihydroquercetin 0.2 mmol/L, single or combined, 6 hr, control 33.3
Experimental: (§1) On the following day after cell seeding, test substances were added and the cells were cultured for 6 hr before harvesting them. The amounts of relative phospho-4E-BP1 protein contained in the prepared whole cell lysates were measured and evaluated. Each group (N=3) was treated as follows: • (1) Control (vehicle control) group: 1% ethanol containing medium • (2) Metformin single-treated group: metformin 5 mmol/L • (3) Dihydroquercetin single-treated group: dihydroquercetin 0.2 mmol/L • (4) Combined-treated group: metformin 5 mmol/L+dihydroquercetin 0.2 mmol/L
The passage-cultured MDA-MB-231 cells were dissociated with trypsin, and suspended in fresh medium. The cell density of the cell suspension was determined using a hematocytometor and adjusted to 2.5×10^5 cells/mL. The cells were seeded on 12-well multiwell culture plate at 1 mL per well, and cultured overnight under the conditions of 37° C., 5% CO2. […] Upon centrifugation, the supernatants were sampled, and the amounts of relative phospho-4E-BP1 (Thr37/Thr46) protein in the samples were quantified using ELISA kits in the same manner as in Example 1. The concentrations of total protein in the whole cell lysates were measured using BOA protein assay, and the relative phospho-4E-BP1 protein amount of each well was normalized with the total protein amount. […]

AsPC-1 cells = assay: Proportion of CD44 and CD24 double positive cells (cancer stem cell surface markers) in AsPC-1 by flow cytometry (Example 12); type: cell-based, human; conditions: 72 hr, dihydroquercetin 0.3 mmol/L, metformin 15 mmol/L + dihydroquercetin 0.3 mmol/L, or gemcitabine 100 nmol/L, compared with the control group (FIG. 7)
Experimental: Each group (N=10) was treated as follows: • (1) Control (vehicle control) group: 1.5% distilled water, 0.3% ethanol and 0.1% DMSO containing medium • (2) Metformin single-treated group: metformin 15 mmol/L • (3) Dihydroquercetin single-treated group: dihydroquercetin 0.3 mmol/L • (4) Metformin-dihydroquercetin combined-treated group: metformin 15 mmol/L+dihydroquercetin 0.3 mmol/L • (5) Gemcitabine single-treated group: gemcitabine 100 nmol/L • (6) Metformin.dihydroquercetin.gemcitabine combined-treated group: metformin 15 mmol/L+dihydroquercetin 0.3 mmol/L+gemcitabine 100 nmol/L
The passage-cultured AsPC-1 cells were dissociated with trypsin, and suspended in fresh medium. The cell density of the cell suspension was determined using a hematocytometer and adjusted to 2×10^4 cells/mL. The cells were seeded on 6-well multiwell culture plate (IWAKI) at 3 mL per well, and cultured overnight under the conditions of 37° C., 5% CO2. […] After washing with FACS (fluorescence activated cell sorting) buffer, the cells were stained with FITC-labeled anti-human CD44 antibody and APC-labeled anti-human CD24 antibody, and treated at 4° C. for 30 min. Thereafter, the cells were washed with the FACS buffer, passed through a 40 micron mesh filter, and the proportion of CD44 and CD24 double positive cells was determined using the flow cytometer (Nippon Becton Dickinson and Company, Ltd.). […]

[7] = tested on: phospho-4E-BP1 (Thr37/Thr46) protein; assay: Relative phospho-4E-BP1 protein amount (ELISA) in human pancreatic cancer cell line AsPC-1, 24 hr (Example 9); type: cell-based; conditions: single or combined
Experimental: Each group (N=3) was treated as follows. • (1) Control (vehicle control) group: 1% ethanol containing medium • (2) Metformin single-treated group: metformin 1.5, 3 and 6 mmol/L • (3) Dihydroquercetin-single treated group: dihydroquercetin 0.3 mmol/L • (4) Combined-treated group: metformin 1.5, 3 and 6 mmol/L+dihydroquercetin 0.3 mmol/L
The passage-cultured AsPC-1 cells were dissociated with trypsin, and suspended in fresh medium. The cell density of the cell suspension was determined using a hematocytometer and adjusted to 2.5×10^5 cells/mL. The cells were seeded on 12-well multiwell culture plate at 1 mL per well, and cultured overnight under the conditions of 37° C., 5% CO2. On the following day, medium containing metformin or dihydroquercetin or both metformin and dihydroquercetin, at the given concentration, was added into each well. After incubation under the conditions of 37° C., 5% CO2 for 24 hr, the cells in each well were washed twice with D-PBS, and whole cell lysates were prepared using cell lysis buffer. Upon centrifugation, the supernatants were sampled, and the amounts of relative phospho-4E-BP1 (Thr37/Thr46) protein in the samples were quantified using ELISA kits in the same manner as in Example 1. The concentrations of total protein in the whole cell lysates were measured using BCA protein assay, and the relative phospho-4E-BP1 protein amount of each well was normalized with the total protein amount.
To evaluate the influence of the combined use on relative phospho-4E-BP1 protein amount, Dunnett test was performed to compare the combined-treated group with each single agent-treated group. […] The differences were considered statistically significant when the p value was less than 0.05.

[8] = tested on: phospho-4E-BP1 (Thr37/Thr46) protein; assay: Relative phospho-4E-BP1 protein amount (ELISA) in human liver cancer cell line HuH-7 (Example 4); type: cell-based; conditions: metformin 5 mmol/L, dihydroquercetin 0.2 mmol/L, single or combined, 6 hr, control 84.1
Experimental: as §1
The passage-cultured HuH-7 cells were dissociated with trypsin, and suspended in fresh medium. The cell density of the cell suspension was determined using a hematocytometer and adjusted to 2.5×10^5 cells/mL. The cells were seeded on 12-well multiwell culture plate at 1 mL per well, and cultured overnight under the conditions of 37° C., 5% CO2. […] Upon centrifugation, the supernatants were sampled, and the amounts of relative phospho-4E-BP1 (Thr37/Thr46) protein in the samples were quantified using ELISA kits in the same manner as in Example 1. The concentrations of the total protein in the whole cell lysates were measured using BCA protein assay, and the relative phospho-4E-BP1 protein amount of each well was normalized with the total protein amount. […]

[9] = tested on: phospho-4E-BP1 (Thr37/Thr46) protein; assay: Relative phospho-4E-BP1 protein amount (ELISA) in AsPC-1, dihydroquercetin single agent (Example 11); type: cell-based, human
Experimental: To evaluate the dose dependency of dihydroquercetin on the relative phospho-4E-BP1 protein amount, the linear regression analysis was performed. As a result, dose dependency was observed. Then, the Williams' test (one-tailed) was performed between the control group and the single agent treated group. As a result, a significant suppressive action of dihydroquercetin at not less than 0.5 mmol/L on relative phospho-4E-BP1 protein amount was observed.

[10] = metformin:dihydroquercetin = 1.5 mmol/L:0.3 mmol/L, control 107.3
[11] = metformin:dihydroquercetin = 3 mmol/L:0.3 mmol/L, control 33.5
[12] = metformin:dihydroquercetin = 6 mmol/L:0.3 mmol/L, control 107.3

`O=C1c2c(O)cc(O)cc2OC(c2ccc(O)c(O)c2)C1O` (racemic) [Dihydroquercetin, dihydroquercetin] was tested, and the “Lactate production induced by metformin” value (WI-38 cells [1]) was “significantly suppressed the lactate production induced by metformin”, the “Relative phospho-4E-BP1 protein amount MEAN” value [2] was 21.0 and the “Relative phospho-4E-BP1 protein amount MEAN” value [3] was 54.2. For the same compound, the Metformin-induced lactate production (WI-38 cells [4]) was “significantly suppressed”, the Lactate production (WI-38 cells [4]) was “suppressed lactate production” and the “Relative phospho-4E-BP1 protein amount MEAN” value [5] was 53.1. For the same compound, the “Relative phospho-4E-BP1 protein amount MEAN” value [6] was 25.9, the “Proportion of CD44 and CD24 double positive cells” value (AsPC-1 cells) was “significantly decreased” and the “Relative phospho-4E-BP1 protein amount MEAN” value [7, 10] was 97.4. For the same compound, the “Relative phospho-4E-BP1 protein amount MEAN” value [7, 11] was 37.2, the “Relative phospho-4E-BP1 protein amount MEAN” value [7, 12] was 89.7 and the “Relative phospho-4E-BP1 protein amount MEAN” value [8] was 59.7. For the same compound, the “Concentration of dihydroquercetin with significant suppressive action on relative phospho-4E-BP1 protein amount” value ([9]; 6 hr, Williams' test vs control group) was “not less than 0.5 mmol/L” and the “Relative phospho-4E-BP1 protein amount” value ([9]; dihydroquercetin 0.5 and 1 mmol/L single agent, 6 hr (FIG. 6)) was “dose-dependent suppressive effect”.

For `Nc1ccn([C@@H]2O[C@H](CO)[C@@H](O)C2(F)F)c(=O)n1` [Gemcitabine, gemcitabine, reference compound], the “Proportion of CD44 and CD24 double positive cells” value (AsPC-1 cells) was “significantly increased”.

With `CN(C)C(=N)N=C(N)N` [Metformin, metformin] the “Relative phospho-4E-BP1 protein amount MEAN” value [2] was 22.0, the “Relative phospho-4E-BP1 protein amount MEAN” value [3] was 55.2 and the “Relative phospho-4E-BP1 protein amount MEAN” value [5] was 57.3. The “Relative phospho-4E-BP1 protein amount MEAN” value [6] was 37.1, the “Relative phospho-4E-BP1 protein amount MEAN” value [7, 10] was 83.1 and the “Relative phospho-4E-BP1 protein amount MEAN” value [7, 11] was 36.9. For the same compound, the “Relative phospho-4E-BP1 protein amount MEAN” value [7, 12] was 83.1 and the “Relative phospho-4E-BP1 protein amount MEAN” value [8] was 61.7.

`O=C1c2c(O)cc(O)cc2O[C@H](c2ccc(O)c(O)c2)[C@H]1O` [optically-active dihydroquercetin, (2R,3R)-dihydroquercetin] was tested, and the Metformin-induced lactate production (WI-38 cells [4]) was “significantly suppressed” and the Lactate production (WI-38 cells [4]) was “suppressed lactate production”.
